Experimental data: patent US11827628B2, “Compositions and methods for inhibition of the JAK pathway” (Rigel Pharmaceuticals, Inc., priority 2005, dated 2023)
pIC50: −log10 of the molar value.

What was measured:
[1] = tested on: IL-4 stimulated expression of CD23 in human Ramos B cells (JAK-1 and JAK-3); test: Assay for Ramos B-Cell Line Stimulated with IL-4 (CD23 upregulation, FACS); type: cell-based; settings: Homo sapiens, Ramos, Ramos B cells stimulated with IL-4, CD23 expression by FACS; read-out: IC50, Example 41
How it was run: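 Read-out is surface CD23 by FACS after anti-CD23-PE staining, giving IC50. Before this, cells were stimulated 20-24 h with 50 units/mL (final) human IL-4, following 1 h compound or vehicle pre-treatment at 37 °C; log-phase Ramos B cells, 5×10^4 per well in 5% serum RPMI.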

Primary human T-cells = test: Primary Human T-Cell Proliferation Assay Stimulated with IL-2 (CellTiter-Glo); type: cell-based; settings: Homo sapiens, T-cell, primary human T-cells stimulated with IL-2, proliferation; read-out: IC50, Example 42
How it was run: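 Peripheral blood T-cells pre-activated with anti-CD3/anti-CD28 and IL-2 were washed free of IL-2, then cultured with compound plus IL-2 for 72 hours at 37° C, duplicate wells. Viability read as ATP by CellTiter-Glo luminescence; IC50 reported.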

pIC50 [1]	Structure (SMILES)	pIC50 (Primary human T-cells)
7.39	COc1cc(Nc2nc(Nc3ccc(C)c(S(N)(=O)=O)c3)ncc2F)ccc1Cl [VI-5, N2-(3-Aminosulfonyl-4-methylphenyl)-N4-(4-chloro-3-methoxyphenyl)-5-fluoro-2,4-pyrimidinediamine]	6.14
6.77	Cc1ccc(Nc2ncc(F)c(Nc3ccc(CO)cc3)n2)cc1S(N)(=O)=O [VI-52, N2-(3-Aminosulfonyl-4-methylphenyl)-5-fluoro-N4-(4-hydroxymethylphenyl)-2,4-pyrimidinediamine]	6.79
7.66	N#CCN1C(=O)COc2ccc(Nc3nc(Nc4ccc(S(N)(=O)=O)cc4)ncc3F)cc21 [Compound V-6, N2-(4-Aminosulphonylphenyl)-5-fluoro-N4-(3-oxo-4-cyanomethyl-benz[1,4]oxazin-6-yl]-2,4-pyrimidinediamine]	7.15
6.23	NS(=O)(=O)c1cccc(Nc2ncc(F)c(Nc3ccc(C(=O)N4CCSCC4)cc3)n2)c1 [IX-34, N2-(3-Aminosulfonylphenyl)-5-fluoro-N4-[4-(4-thiomorpholinyl)carbonylphenyl]-2,4-pyrimidinediamine]	6.24
7.51	CN1C(=O)CSc2ccc(Nc3nc(Nc4ccc(S(N)(=O)=O)cc4)ncc3F)cc21 [VII-48, N2-(4-Aminosulfonylphenyl)-5-fluoro-N4-(4-methyl-3-oxo-benz[1,4]thiazin-6-yl)-2,4-pyrimidinediamine]	6.47
6.97	COc1ccc(Nc2nc(Nc3ccc(C(C)C)c(S(N)(=O)=O)c3)ncc2F)cc1Cl [VI-45, N2-(3-Aminosulfonyl-4-iso-propylphenyl)-N4-(3-chloro-4-methoxy-phenyl)-5-fluoro-2,4-pyrimidinediamine]	5.88
7.24	Cc1ccc(Nc2ncc(F)c(Nc3ccc4[nH]cc(CC#N)c4c3)n2)cc1S(N)(=O)=O [IX-14, N2-(3-Aminosulfonyl-4-methylphenyl)-N4-(3-cyanomethyl-1H-indol-5-yl)-5-fluoro-2,4-pyrimidinediamine]	6.18
6.34	Cc1ccc(Nc2ncc(F)c(Nc3ccc(C(=O)N4CCSCC4)cc3)n2)cc1S(N)(=O)=O [IX-35, N2-(3-Aminosulfonyl-4-methylphenyl)-5-fluoro-N4-[4-(4-thiomorpholinyl)carbonylphenyl]-2,4-pyrimidinediamine]	6.06
6.91	C#CCOc1ccc(Nc2nc(Nc3ccc(Cl)c(S(N)(=O)=O)c3)ncc2F)cc1 [VI-55, N2-(3-Aminosulfonyl-4-chlorophenyl)-5-fluoro-N4-[4-(prop-2-ynyloxy)phenyl]-2,4-pyrimidinediamine]	6.20
6.66	N#CCc1c[nH]c2c(Nc3nc(Nc4cccc(S(N)(=O)=O)c4)ncc3F)cccc12 [IX-15, N2-(3-Aminosulfonylphenyl)-N4-(3-cyanomethyl-1H-indol-7-yl)-5-fluoro-2,4-pyrimidinediamine]	6.80
6.53	NC(=O)c1cc2cc(Nc3nc(Nc4cccc(S(N)(=O)=O)c4)ncc3F)ccc2o1 [VII-54, N2-(3-Aminosulfonylphenyl)-N4-(2-aminocarbonylbenzofurane-5-yl)-5-fluoro-2,4-pyrimidinediamine]	6.22
7.36	COc1ccc(Nc2nc(Nc3cc(C)c(Cl)c(S(N)(=O)=O)c3)ncc2F)cc1Cl [VI-17, N2-(3-Aminosulfonyl-4-chloro-5-methylphenyl)-N4-(3-chloro-4-methoxyphenyl)-5-fluoro-2,4-pyrimidinediamine]	6.61
7.10	Cc1ccc(Nc2ncc(F)c(Nc3cccc(-c4cnco4)c3)n2)cc1S(N)(=O)=O [IV-2, N2-(3-Aminosulfonyl-4-methylphenyl)-5-fluoro-N4-[3-(1,3-oxazol-5-yl)phenyl]-2,4-pyrimidinediamine]	6.44
